Measurements as given in patent US20100331297A1, “MODULATION OF PROTEIN TRAFFICKING” (FOLDRX PHARMACEUTICALS, INC., priority 2007, published 2010).

Experiments:
ΔF508 CFTR [1] = biological target: T1, ΔF508 CFTR (Homo sapiens, UniProt P13569, DEL508-508); assay: Corrector activity, YFP halide (iodide) quenching assay in FRT cells expressing ΔF508 CFTR; format: cell-based; set-up: expressed in transfected cells; host or cells: Fischer rat thyroid (FRT) cells; details: FRT cells ΔF508 CFTR/YFP, 24 hours with compound at 37° C., forskolin and genistein; read-out: Corrector EC50
T1 sequence (P13569 with tags, fused parts or gaps DEL508-508): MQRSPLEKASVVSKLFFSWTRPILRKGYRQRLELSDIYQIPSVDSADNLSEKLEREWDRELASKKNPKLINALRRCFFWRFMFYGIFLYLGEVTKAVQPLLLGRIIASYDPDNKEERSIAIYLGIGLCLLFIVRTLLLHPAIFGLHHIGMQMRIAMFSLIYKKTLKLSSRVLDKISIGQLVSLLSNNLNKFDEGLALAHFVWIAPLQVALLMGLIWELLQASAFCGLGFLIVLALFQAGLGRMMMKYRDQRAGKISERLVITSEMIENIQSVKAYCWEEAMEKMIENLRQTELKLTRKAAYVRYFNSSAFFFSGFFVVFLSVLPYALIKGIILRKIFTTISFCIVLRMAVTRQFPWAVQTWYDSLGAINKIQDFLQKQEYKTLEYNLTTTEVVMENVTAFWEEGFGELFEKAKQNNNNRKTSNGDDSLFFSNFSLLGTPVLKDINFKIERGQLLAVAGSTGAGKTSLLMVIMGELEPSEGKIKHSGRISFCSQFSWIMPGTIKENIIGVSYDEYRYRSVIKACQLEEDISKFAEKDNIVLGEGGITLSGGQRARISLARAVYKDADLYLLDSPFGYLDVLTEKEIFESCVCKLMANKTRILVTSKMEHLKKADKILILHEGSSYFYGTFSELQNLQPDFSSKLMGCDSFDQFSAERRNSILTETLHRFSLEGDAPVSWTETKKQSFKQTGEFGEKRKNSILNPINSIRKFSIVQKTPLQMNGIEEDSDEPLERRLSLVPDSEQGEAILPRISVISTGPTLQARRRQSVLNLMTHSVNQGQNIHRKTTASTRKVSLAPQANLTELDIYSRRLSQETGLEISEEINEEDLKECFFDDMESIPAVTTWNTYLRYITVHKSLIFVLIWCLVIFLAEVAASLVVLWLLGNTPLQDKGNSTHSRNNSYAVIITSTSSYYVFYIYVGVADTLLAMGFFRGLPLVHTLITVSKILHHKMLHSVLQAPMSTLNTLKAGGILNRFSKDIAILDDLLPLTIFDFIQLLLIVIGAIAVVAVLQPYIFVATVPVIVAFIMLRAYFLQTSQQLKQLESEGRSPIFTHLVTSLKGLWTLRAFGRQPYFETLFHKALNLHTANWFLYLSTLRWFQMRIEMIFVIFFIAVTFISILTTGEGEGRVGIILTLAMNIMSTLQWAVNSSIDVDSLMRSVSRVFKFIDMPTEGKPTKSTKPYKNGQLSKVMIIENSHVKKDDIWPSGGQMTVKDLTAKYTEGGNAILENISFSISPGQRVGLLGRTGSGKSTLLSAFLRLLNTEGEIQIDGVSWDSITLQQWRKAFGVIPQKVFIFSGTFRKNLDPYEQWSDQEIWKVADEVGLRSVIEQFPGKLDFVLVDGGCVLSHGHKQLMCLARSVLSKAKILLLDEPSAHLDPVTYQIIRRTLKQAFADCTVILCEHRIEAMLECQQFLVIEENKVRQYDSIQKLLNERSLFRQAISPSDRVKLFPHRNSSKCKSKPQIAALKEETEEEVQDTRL
How it was run: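 FRT cells co-expressing ΔF508 CFTR and halide-sensitive YFP were incubated 24 h at 37° C with compounds, then stimulated 30 min at 37° C in PBS with forskolin and genistein. Endpoint fluorescence after iodide injection was normalized to initial reading; EC50 from 4-parameter fit with bottom constrained to DMSO control.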

ΔF508 CFTR [2] = biological target: T1, ΔF508 CFTR; assay: Potentiator activity, YFP halide (iodide) quenching assay in FRT cells expressing ΔF508 CFTR, 27° C. pre-incubation; format: cell-based; set-up: expressed in transfected cells; host or cells: Fischer rat thyroid (FRT) cells; details: FRT cells ΔF508 CFTR/YFP, 24 hours at 27° C., compound with forskolin 30 min
Experimental: Fisher rat thyroid (FRT) cells stably expressing ΔF508 CFTR and a halide-sensitive variant of yellow fluorescent protein (YFP) were seeded into microtiter plates and allowed to grow for 24 hours at 37° C. and 5% CO2, as described above. The medium was replaced with fresh medium and the cells were incubated for a further 24 hours at 27° C. and 5% CO2 to increase the level of mutant CFTR at the cell surface.
Compounds in DMSO solution were pre-diluted into phosphate-buffered saline solution (PBS) containing forskolin. Activity of CFTR was assayed by removing the medium, washing the cell monolayer with PBS, and then applying the compounds diluted in PBS containing forskolin. After 30 min of incubation at 37° C., the plates were placed in a fluorescence plate reader equipped with a reagent injector. After measuring an initial fluorescence value, iodide-containing buffer was injected and the decrease in fluorescence was followed at excitation and emission wavelengths of 485 and 530 nm, respectively.
Potentiator activity was calculated as follows. Normalized endpoint fluorescence was calculated by dividing the endpoint fluorescence after iodide injection by the initial fluorescence reading and multiplication by 100. Potentiator EC50 values were calculated by the same method as corrector EC50 values.

With `CCn1nc(Sc2cccc(Cl)c2)c2c(N)ncnc21` [compound 226] the EC50 (ΔF508 CFTR [1]) was greater than 15 µM and the EC50 (ΔF508 CFTR [2]) was less than 2 µM.
Compound `CCn1nc(Sc2ccccc2Cl)c2c(N)ncnc21` [compound 227] has an EC50 (ΔF508 CFTR [1]) greater than 15 µM and an EC50 (ΔF508 CFTR [2]) greater than 15 µM.
`Nc1ncnc2c1c(Oc1cccc(Cl)c1)nn2C1CCC1` [compound 228] was tested, and the EC50 (ΔF508 CFTR [1]) was greater than 15 µM and the EC50 (ΔF508 CFTR [2]) was less than 2 µM.
Work on `CC(C)(C)n1nc(Oc2ccc(OCc3ccccc3)cc2)c2c(N)ncnc21` [compound 233] yielded an EC50 (ΔF508 CFTR [1]) greater than 15 µM and an EC50 (ΔF508 CFTR [2]) greater than 15 µM.
For `CCn1nc(Sc2cccc(Br)c2)c2c(N)ncnc21` [compound 236], the EC50 (ΔF508 CFTR [1]) was greater than 15 µM and the EC50 (ΔF508 CFTR [2]) was less than 2 µM.
In the case of `CC(C)(C)n1nc(Oc2ccc(C(=O)c3ccccc3)cc2)c2c(N)ncnc21` [compound 237], the EC50 (ΔF508 CFTR [1]) is reported as greater than 15 µM and the EC50 (ΔF508 CFTR [2]) is reported as greater than 15 µM.
For `CCn1nc([S+]([O-])c2cccc(F)c2)c2c(N)ncnc21` (stereo not shown) [compound 238], the EC50 (ΔF508 CFTR [1]) was greater than 15 µM and the EC50 (ΔF508 CFTR [2]) was greater than 15 µM.
Compound `CCC(=O)Nc1ncnc2c1c(-c1ccc(Cl)cc1)nn2C(C)(C)C` [compound 240] has an EC50 (ΔF508 CFTR [1]) of 5 to 10 µM and an EC50 (ΔF508 CFTR [2]) of less than 2 µM.
In the case of `CCn1nc([S+]([O-])c2cccc3ccccc23)c2c(N)ncnc21` (stereo not shown) [compound 241], the EC50 (ΔF508 CFTR [1]) is reported as greater than 15 µM and the EC50 (ΔF508 CFTR [2]) is reported as greater than 15 µM.
Compound `CC(C)(C)n1nc(Sc2cccc(C(F)(F)F)c2)c2c(N)ncnc21` [compound 244, 1-tert-Butyl-3-(3-trifluoromethyl-phenylsulfanyl)-1H-pyrazolo[3,4-d]pyrimidin-4-ylamine] has an EC50 (ΔF508 CFTR [1]) greater than 15 µM and an EC50 (ΔF508 CFTR [2]) of 5 to 10 µM.
In the case of `CC(C)(C)n1nc(Sc2ccccn2)c2c(N)ncnc21` [compound 245], the EC50 (ΔF508 CFTR [1]) is reported as greater than 15 µM and the EC50 (ΔF508 CFTR [2]) is reported as 5 to 10 µM.
`Nc1ncnc2c1c(-c1ccc(Cl)cc1)nn2C1CCCC1` [compound 247] showed an EC50 (ΔF508 CFTR [1]) of 2 to 5 µM and an EC50 (ΔF508 CFTR [2]) of 2 to 5 µM.
Work on `CC(C)Cn1nc(-c2ccc(Cl)cc2)c2c(N)ncnc21` [compound 252] yielded an EC50 (ΔF508 CFTR [1]) of 2 to 5 µM and an EC50 (ΔF508 CFTR [2]) of 5 to 10 µM.
Compound `Nc1ncnc2c1c(Oc1cccc(Cl)c1)nn2CC1CCC1` [compound 256] has an EC50 (ΔF508 CFTR [1]) greater than 15 µM and an EC50 (ΔF508 CFTR [2]) of less than 2 µM.
Work on `Nc1ncnc2c1c(-c1ccc(Cl)cc1)cn2C1CCC1` [compound 257] yielded an EC50 (ΔF508 CFTR [1]) of less than 2 µM and an EC50 (ΔF508 CFTR [2]) of less than 2 µM.
Work on `Nc1ncnc2c1c(-c1ccc(Cl)cc1)cn2CC1CCC1` [compound 262] yielded an EC50 (ΔF508 CFTR [1]) of 2 to 5 µM and an EC50 (ΔF508 CFTR [2]) of 2 to 5 µM.
`Nc1ncnc2c1c(Oc1cccc(Cl)c1)nn2CC(F)F` [compound 263] showed an EC50 (ΔF508 CFTR [1]) greater than 15 µM and an EC50 (ΔF508 CFTR [2]) greater than 15 µM.
`CCn1nc(Sc2cc(F)cc(F)c2)c2c(N)ncnc21` [compound 264] gave an EC50 (ΔF508 CFTR [1]) greater than 15 µM and an EC50 (ΔF508 CFTR [2]) of 2 to 5 µM.
`CC(C)C(=O)Nc1ncnc2c1c(-c1ccc(Cl)cc1)nn2C(C)(C)C` [compound 265] gave an EC50 (ΔF508 CFTR [1]) of 5 to 10 µM and an EC50 (ΔF508 CFTR [2]) of less than 2 µM.
`CC(C)(C)n1nc(-c2ccc(Cl)cc2)c2c(NC(=O)C3CCCC3)ncnc21` [compound 266] was tested, and the EC50 (ΔF508 CFTR [1]) was 5 to 10 µM and the EC50 (ΔF508 CFTR [2]) was less than 2 µM.
`CC(C)(C)n1nc(-c2ccc(Cl)cc2)c2c(NC(=O)N3CCOCC3)ncnc21` [compound 268] gave an EC50 (ΔF508 CFTR [1]) greater than 15 µM and an EC50 (ΔF508 CFTR [2]) greater than 15 µM.
`CN(C)C(=O)Nc1ncnc2c1c(-c1ccc(Cl)cc1)nn2C(C)(C)C` [compound 269] showed an EC50 (ΔF508 CFTR [1]) greater than 15 µM and an EC50 (ΔF508 CFTR [2]) greater than 15 µM.
With `CCOC(=O)N1CC(n2nc(-c3ccc(Cl)cc3)c3c(N)ncnc32)C1` [compound 270] the EC50 (ΔF508 CFTR [1]) was greater than 15 µM and the EC50 (ΔF508 CFTR [2]) was greater than 15 µM.
With `CCC(=O)Nc1ncnc2c1c(-c1ccc(Cl)cc1)cn2CC` [compound 271] the EC50 (ΔF508 CFTR [1]) was less than 2 µM and the EC50 (ΔF508 CFTR [2]) was 5 to 10 µM.
Compound `CCn1cc(-c2ccc(Cl)cc2)c2c(NC(=O)c3ccccc3)ncnc21` [compound 272] has an EC50 (ΔF508 CFTR [1]) of less than 2 µM and an EC50 (ΔF508 CFTR [2]) greater than 15 µM.
In the case of `CC(C)(C)n1nc(-c2ccc(Cl)cc2)c2c(NC(=O)N3CCCCC3)ncnc21` [compound 273], the EC50 (ΔF508 CFTR [1]) is reported as greater than 15 µM and the EC50 (ΔF508 CFTR [2]) is reported as greater than 15 µM.
In the case of `CC(C)(C)n1nc(-c2ccc(O)cc2Cl)c2c(N)ncnc21` [compound 276], the EC50 (ΔF508 CFTR [1]) is reported as 5 to 10 µM and the EC50 (ΔF508 CFTR [2]) is reported as less than 2 µM.
Compound `Nc1ncnc2c1c(-c1ccc(Cl)cc1)nn2-c1nc2ccccc2o1` [compound 277] has an EC50 (ΔF508 CFTR [1]) greater than 15 µM and an EC50 (ΔF508 CFTR [2]) greater than 15 µM.
Work on `Nc1ncnc2c1c(Oc1cccc(Cl)c1)nn2CC1CC1` [compound 278] yielded an EC50 (ΔF508 CFTR [1]) greater than 15 µM and an EC50 (ΔF508 CFTR [2]) of less than 2 µM.
